pEC50: −log10 of the molar value. Where two headings read alike, the source gives them in different places.
How the values were obtained:
[1] = test system: Dengue 2, New Guinea strain (NGC); test: DENV-2 moDC EC50 (qPCR of viral RNA in infected moDCs); assay type: cell-based, New Guinea strain (NGC); human moDCs; conditions: human moDCs infected with Dengue 2 NGC, MOI=0.1, 48 hours
Method: Example 82. DENV-2 moDC EC50
Human monocyte-derived dendritic cells (moDCs) were derived from CD14+ monocytes (AllCells) cultured in Human Mo-DC Differentiation medium containing GM-CSF and IL-4 (Miltenyi Biotec). On day 7, moDCs were harvested by mechanical disruption, washed and suspended in serum-free RPMI. moDCs were infected with Vero-derived Dengue 2, New Guinea strain (NGC) at a MOI=0.1 for two hours in serum-free RPMI with gentle agitation at 37° C. Cells were washed and resuspended in 10% serum-containing RPMI (Gibco, supplemented with sodium pyruvate, NEAA, Penicillin-Streptomycin). […] were plated in triplicate in 96-well plates with compounds dispensed at graded doses (Hewlett-Packard D300 Digital Dispenser). All wells were normalized to 0.25% DMSO. At 48 hours, cells were washed with 1×PBS and all supernatants removed. Total RNA was extracted using RNEasy 96 plates (Qiagen) and used to generate first-strand cDNA using XLT cDNA 5× Supermix (QuantaBio). cDNA was used as a template in a Taqman qPCR duplex reaction specific to DENV2 viral and GAPDH gene expression. EC50 values were determined using Prism Graphpad software, with normalization to a positive control and no compound negative control wells.

[2] = test system: Human monocyte-derived dendritic cells (moDCs); test: moDC CC50 (CellTiter Glo viability); assay type: cell-based; conditions: uninfected moDCs, 48 hours
Method: (§1) Human monocyte-derived dendritic cells (moDCs) were derived from CD14+ monocytes (AllCells) cultured in Human Mo-DC Differentiation medium containing GM-CSF and IL-4 (Miltenyi Biotec). On day 7, moDCs were harvested by mechanical disruption, washed and cultured in triplicate at […] cells/well in 96-well plates with compounds dispensed at graded doses (Hewlett-Packard D300 Digital Dispenser). All wells were normalized to 0.25% DMSO. After 48 hours, CellTiter Glo (Promega) was added and incubated for 10 minutes at room temp before reading on a luminometer. % viability curves were calculated against no compound and no cell control wells. CC50 values were determined using Prism Graphpad software.

[3] = test system: Dengue serotype 2 New Guinea C (NGC) strain; test: DENV-2 Huh-7 EC50 (qPCR of viral RNA in infected Huh7 cells); assay type: cell-based; conditions: MOI=0.1, 48 hours
Procedure, shortened: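 Huh7 cells were infected 2 h at 37 °C with DENV-2 NGC at MOI 0.1, then plated with graded compound doses (0.25% DMSO) in triplicate for 48 h. Viral RNA was quantified by duplex TaqMan qPCR against GAPDH. EC50 was normalized to positive and no-compound controls.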

[4] = test system: Human hepatocarcinoma 7 (Huh7) cells; test: Huh-7 CC50 (CellTiter Glo viability); assay type: cell-based; conditions: 48 hours
Procedure, shortened: (§2)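 Huh7 cells in 10% FCS DMEM plated at 1-2×10^4 per well in triplicate with graded compound doses, 0.25% DMSO throughout. Viability after 48 hours by CellTiter Glo luminescence, normalized to no-compound and no-cell controls; CC50 from curve fitting.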

RSV strain A2 = test: RSV HEp-2 EC50 (infectious cytopathic cell protection assay); assay type: cell-based, RSV strain A2; HEp-2 cells; conditions: read-out: RSV Hep-2 EC50
Procedure, shortened: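 HEp-2 cells (50,000/mL) infected with titered RSV stock, added onto compound in 3-fold serial dilutions; 4 days at 37 °C. Cell viability read by CellTiter-Glo luminescence; percent inhibition of virus-induced cytopathic effect derived from remaining viability against 0% and 100% inhibition controls.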

uninfected HEp-2 cells = test: HEp-2 CC50 (cytotoxicity in uninfected HEp-2 cells); assay type: cell-based; conditions: 4 days, CellTiter Glo
Method: (§3) Instead, an uninfected cell mixture at the same density is added at 20 uL/well to plates containing prediluted compounds, also at 100 nL/sample. Assay plates are then incubated for 4 days followed by a cell viability test using the same CellTiter Glo reagent addition and measurement of luminescent readouts. Untreated cell and cells treated at 2 μM puromycin (Sigma, St. Louis, MO) serve as 100% and 0% cell viability control, respectively.

[5] = moDC CC50 (CellTiter Glo viability); assay type: cell-based, Human; conditions: human, uninfected moDCs
Method: as §1

[6] = Huh-7 CC50 (CellTiter Glo viability); assay type: cell-based, Human; conditions: human, Huh7 hepatocarcinoma cells
Procedure, shortened: as §2

[7] = HEp-2 CC50 (cytotoxicity in uninfected HEp-2 cells); assay type: cell-based; conditions: human, CellTiter Glo
Method: as §3

[8] = Huh7 cells infected with Dengue serotype 2 NGC
[9] = HEp-2 cells infected with RSV A2, 4 days, Cell TiterGlo
[10] = Dengue virus, DENV2, Huh-7, Huh7 cells infected with Dengue serotype 2 NGC
[11] = human respiratory syncytial virus, HEp-2, 96 h

## CCC(=O)O[C@H]1[C@H](c2ccc3c(N)ncnn23)O[C@](CF)(COP(=O)(N[C@@H](C)C(=O)OC2CCCCC2)Oc2ccccc2)[C@H]1OC(=O)CC (stereo partly drawn) [Example 16, (2R,3S,4S,5S)-5-(4-aminopyrrolo[2,1-f][1,2,4]triazin-7-yl)-2-((((((S)-1-(cyclohexyloxy)-1-oxopropan-2-yl)amino)(Phenoxy)phosphoryl)oxy)methyl)-2-(fluoromethyl)tetrahydrofuran-3,4-diyl dipropionate]
[1]
  pEC50: 6.67
[2]
  CC50: 3800 nM
[3]; [8]
  pEC50: 6.13
[4]
  CC50: 13400 nM
RSV strain A2; [9]
  pEC50: 5.96
Uninfected HEp-2 cells
  CC50: 33000 nM

## CCOC(=O)[C@H](C)NP(=O)(OC[C@@]1(CF)O[C@@H](c2ccc3c(N)ncnn23)[C@H](O)[C@@H]1O)Oc1ccc(C(C)(C)C)cc1 (single isomer, unassigned) [Example 48]
[3]; [8]
  pEC50: 6.41
[4]
  CC50: 15400 nM
RSV strain A2; [9]
  pEC50: 6.67
Uninfected HEp-2 cells
  CC50: 30200 nM

## CCOC(=O)[C@H](C)NP(=O)(OC[C@@]1(CF)O[C@@H](c2ccc3c(N)ncnn23)[C@H](OC(C)=O)[C@@H]1OC(C)=O)Oc1ccccc1 (stereo partly drawn) [Example 21, (2R,3S,4S,5S)-5-(4-aminopyrrolo[2,1-f][1,2,4]triazin-7-yl)-2-((((((S)-1-ethoxy-1-oxopropan-2-yl)amino)(phenoxy)phosphoryl)oxy)methyl)-2-(fluoromethyl)tetrahydrofuran-3,4-diyl diacetate]
[1]
  pEC50: 5.98
[2]
  CC50: > 17300 nM
[3]; [8]
  pEC50: 5.51
[4]
  CC50: > 25000 nM
RSV strain A2; [9]
  pEC50: 5.75
Uninfected HEp-2 cells
  CC50: > 100000 nM

## C[C@H](NP(=O)(OC[C@@]1(CF)O[C@@H](c2ccc3c(N)ncnn23)[C@H](O)[C@@H]1O)Oc1ccccc1)C(=O)OCC(C)(C)C(F)(F)F (single isomer, unassigned) [Example 54]
[1]
  pEC50: 6.62
[2]
  CC50: 3260 nM
[3]; [8]
  pEC50: 6.39
[4]
  CC50: > 25000 nM
RSV strain A2; [9]
  pEC50: 6.74
Uninfected HEp-2 cells
  CC50: > 100000 nM

## CCC(=O)O[C@H]1[C@H](c2ccc3c(N)ncnn23)O[C@](CF)(COP(=O)(N[C@@H](C)C(=O)OC)Oc2ccccc2)[C@H]1OC(=O)CC (stereo partly drawn) [Example 33, (2R,3S,4S,5S)-5-(4-aminopyrrolo[2,1-f][1,2,4]triazin-7-yl)-2-(fluoromethyl)-2-((((((S)-1-methoxy-1-oxopropan-2-yl)amino)(phenoxy)phosphoryl)oxy)methyl)tetrahydrofuran-3,4-diyl dipropionate]
[3]; [8]
  pEC50: 6.09
[4]
  CC50: > 25000 nM
RSV strain A2; [9]
  pEC50: 5.91
Uninfected HEp-2 cells
  CC50: 43300 nM

## C[C@H](NP(=O)(OC[C@@]1(CF)O[C@@H](c2ccc3c(N)ncnn23)[C@H](O)[C@@H]1O)Oc1ccccc1)C(=O)OCC(C)(C)C(F)(F)F (single isomer, unassigned) [Example 55]
[1]
  pEC50: 6.99
[2]
  CC50: 4180 nM
[3]; [8]
  pEC50: 6.21
[4]
  CC50: > 25000 nM
RSV strain A2; [9]
  pEC50: 6.82
Uninfected HEp-2 cells
  CC50: > 100000 nM

## CCOC(=O)[C@H](C)NP(=O)(OC[C@@]1(CF)O[C@@H](c2ccc3c(N)ncnn23)[C@H](OC(=O)CC)[C@@H]1OC(=O)CC)Oc1ccccc1 (stereo partly drawn) [Example 25, (2R,3S,4S,5S)-5-(4-aminopyrrolo[2,1-f][1,2,4]triazin-7-yl)-2-((((((S)-1-ethoxy-1-oxopropan-2-yl)amino)(Phenoxy)phosphoryl)oxy)methyl)-2-(fluoromethyl) tetrahydrofuran-3,4-diyl dipropionate]
[1]
  pEC50: 6.67
[3]; [8]
  pEC50: 6.54
[4]
  CC50: > 25000 nM
RSV strain A2; [9]
  pEC50: 6.04
Uninfected HEp-2 cells
  CC50: 70000 nM

## CCOC(=O)[C@H](C)NP(=O)(OC[C@@]1(CF)O[C@@H](c2ccc3c(N)ncnn23)[C@H](O)[C@@H]1O)Oc1ccc(C(C)(C)C)cc1 (single isomer, unassigned) [Example 49]
[3]; [8]
  pEC50: 6.48
[4]
  CC50: > 25000 nM
RSV strain A2; [9]
  pEC50: 6.65
Uninfected HEp-2 cells
  CC50: > 100000 nM

## CC(=O)O[C@H]1[C@H](c2ccc3c(N)ncnn23)O[C@](CF)(COP(=O)(N[C@@H](C)C(=O)OC2CCCCC2)Oc2ccccc2)[C@H]1OC(C)=O (stereo partly drawn) [Example 15, (2R,3S,4S,5S)-5-(4-aminopyrrolo[2,1-f][1,2,4]triazin-7-yl)-2-((((((S)-1-(cyclohexyloxy)-1-oxopropan-2-yl)amino)(Phenoxy)phosphoryl)oxy)methyl)-2-(fluoromethyl)tetrahydrofuran-3,4-diyl diacetate]
[3]; [8]
  pEC50: 5.79
[4]
  CC50: > 25000 nM
RSV strain A2; [9]
  pEC50: 5.84
Uninfected HEp-2 cells
  CC50: > 50000 nM

## CCCCOC(=O)[C@H](C)N[P@](=O)(OC[C@@]1(CF)O[C@@H](c2ccc3c(N)ncnn23)[C@H](O)[C@@H]1O)Oc1ccccc1 (single isomer, unassigned) [Example 46]
[1]; Dengue virus
  pEC50: 6.80
[5]
  CC50 at 48 h: 3350 nM
[3]; [10]
  pEC50: 6.41
[6]
  CC50 at 48 h: 10200 nM
RSV strain A2; [11]
  pEC50: 6.63
[7]
  CC50 at 4 days: 37100 nM

## CC(C)C(=O)O[C@H]1[C@H](c2ccc3c(N)ncnn23)O[C@](CF)(COP(=O)(N[C@@H](C)C(=O)OC2CCCCC2)Oc2ccccc2)[C@H]1OC(=O)C(C)C (single isomer, unassigned) [Example 63]
[1]; Dengue virus
  pEC50: 6.49
[5]
  CC50 at 48 h: 5600 nM
[3]; [10]
  pEC50: 6.22
[6]
  CC50 at 48 h: 10700 nM
RSV strain A2; [11]
  pEC50: 5.62
[7]
  CC50 at 4 days: 19100 nM

## C[C@H](NP(=O)(OC[C@@]1(CF)O[C@@H](c2ccc3c(N)ncnn23)[C@H](O)[C@@H]1O)Oc1ccccc1)C(=O)OCCC(C)(C)C (stereo partly drawn) [Example 4, 3,3-dimethylbutyl ((((2R,3S,4R,5S)-5-(4-aminopyrrolo[2,1-f][1,2,4]triazin-7-yl)-2-(fluoromethyl)-3,4-dihydroxytetrahydrofuran-2-yl)methoxy)(phenoxy)phosphoryl)-L-alaninate]
[1]; Dengue virus
  pEC50: 7.24
[5]
  CC50 at 48 h: 4780 nM
[3]; [10]
  pEC50: 6.88
[6]
  CC50 at 48 h: 17800 nM
RSV strain A2; [11]
  pEC50: 7.54
[7]
  CC50 at 4 days: > 100000 nM

## CCOC(=O)[C@H](C)NP(=O)(OC[C@@]1(CF)O[C@@H](c2ccc3c(N)ncnn23)[C@H](OC(=O)C(C)C)[C@@H]1OC(=O)C(C)C)Oc1ccccc1 (stereo partly drawn) [Example 24, (2R,3S,4S,5S)-5-(4-aminopyrrolo[2,1-f][1,2,4]triazin-7-yl)-2-((((((S)-1-ethoxy-1-oxopropan-2-yl)amino)(phenoxy)phosphoryl)oxy)methyl)-2-(fluoromethyl) tetrahydrofuran-3,4-diyl bis(2-methylpropanoate)]
[1]
  pEC50: 6.59
[2]
  CC50: 18600 nM
[3]; [8]
  pEC50: 5.81
[4]
  CC50: 16000 nM
RSV strain A2; [9]
  pEC50: 5.74
Uninfected HEp-2 cells
  CC50: 16600 nM

## CCCCCOC(=O)[C@H](C)NP(=O)(OC[C@@]1(CF)O[C@@H](c2ccc3c(N)ncnn23)[C@H](O)[C@@H]1O)Oc1ccccc1 (stereo partly drawn) [Example 59, pentyl ((((2R,3S,4R,5S)-5-(4-aminopyrrolo[2,1-f][1,2,4]triazin-7-yl)-2-(fluoromethyl)-3,4-dihydroxytetrahydrofuran-2-yl)methoxy)(phenoxy)phosphoryl)-L-alaninate]
[1]; Dengue virus
  pEC50: 7.21
[5]
  CC50 at 48 h: 7040 nM
[3]; [10]
  pEC50: 6.82
[6]
  CC50 at 48 h: 11300 nM
RSV strain A2; [11]
  pEC50: 6.53
[7]
  CC50 at 4 days: 45100 nM
